Measurements from patent US20130237485A1, “Methods and Agents for Enhancing Wound Healing” (UNIVERSITY OF SOUTHERN CALIFORNIA, priority 2010, published 2013).

How the values were obtained:
[1] = test system: RDEB keratinocytes; assay: Immunoblot (anti-NC1 antibody) for full-length C7 in RDEB keratinocytes treated with aminoglycosides; assay type: cell-based, human; settings: for read-through / full-length C7 production: 48 h, G418 8 μg/mL, gentamicin 200 μg/mL, paromomycin 200 μg/mL, amikacin 1 mg/mL, PTC 124 20 μg/mL, EB5K and DG16 keratinocytes, FIG. 1; for sustained C7 production: G418 8 μg/mL or gentamicin 200 μg/mL, lysed at 3, 5, or 8 days following treatment, FIG. 3; for dose dependence of full-length C7 production: varying concentrations, EB5K and DG16 lines, FIG. 2
Description: RDEB keratinocytes were treated for 48 h with either G418 (8 μg/mL), gentamicin (200 μg/mL), paromomcyin (200 μg/mL), amikacin (1 mg/mL), or PTC 124 (20 μg/mL). Cells were subsequently lysed and subjected to immunoblot analysis with anti-NC1 antibody or anti-β-tubulin antibody (loading control).
RDEB keratinocytes were treated with varying concentrations of G418 and Gentamicin. Cells were lysed and subjected to immunoblot analysis with an anti-NC1 or anti-β-tubulin antibody (loading control).
EB5K and D016 keratinocytes were treated with G418 (8 μg/mL) or gentamicin (200 μg/mL). Cells were lysed at 3, 5, or 8 days following treatment and subjected to immunoblot analysis with an anti-NC1 or anti-β-tubulin antibody.

[2] = test system: DG16 and EB5K keratinocytes; assay: Immunofluorescence staining for C7 with polyclonal anti-NC1 antibody; assay type: cell-based, human; settings: G418 8 μg/mL or gentamicin 200 μg/mL, FIG. 4
Text: Normal human keratinocytes (IKC) were stained in parallel. […] In contrast, untreated parent keratinocytes entirely lacked C7expression.

[3] = test system: EB5K and DG16 keratinocytes; assay: Colloidal gold salt migration assay using collagen I as a matrix; assay type: cell-based; settings: G418 8 μg/mL or gentamicin 200 μg/mL for 48 h; compared with normal human keratinocytes (IKC); FIG. 5
Description: In FIG. 5A, keratinocytes were either untreated or treated with G418 (8 μg/mL) or gentamicin (200 μg/mL) for 48 h and then subjected to colloidal gold salt migration assay using collagen I as a matrix. Representative fields were photographed at 40× under dark field optics. In FIG. 5B, migration index expresses the percentage of the total field area consumed by the migration tracks. Error bars, SD of three different experiments.

[4] = test system: Human epithelial (293 cells) transfected with nonsense mutation constructs; assay: Immunoblot (anti-NC1 antibody) of 293 cells transfected with COL7A1 nonsense mutation constructs; assay type: cell-based; settings: 293 cells with mutant constructs; for PTC read-through and full-length C7 production: G418 8 μg/mL or gentamicin 200 μg/mL for 48 h, FIG. 7
Description: For experimentation with cells containing different nonsense mutation in the COL7A1 gene, we used a C7 expression vector to introduce 30 nonsense mutations associated with RDEB via site-directed mutagenesis.
Human epithelial (293 cells) transfected with nonsense mutation constructs were treated with (FIG. 7A) G418 (8 μg/mL) and (FIG. 7B) gentamicin (200 μg/mL) for 48 h, lysed, and subjected to immunoblot analysis with an anti-NC1 antibody or anti-β-tubulin antibody (loading control).
In FIG. 8B, 293 cells transfected with the indicated mutant constructs were either untreated or treated with G418 (8 μg/mL) for 48 h, lysed and subjected to immunoblot analysis using an anti-NC1 antibody or anti-β-tubulin antibody (loading control).

In the case of NCC[C@H](O)C(=O)N[C@@H]1C[C@H](N)[C@@H](O[C@H]2O[C@H](CN)[C@@H](O)[C@H](O)[C@H]2O)[C@H](O)[C@H]1O[C@H]1O[C@H](CO)[C@@H](O)[C@H](N)[C@H]1O [Amikacin, amikacin], the “read-through / full-length C7 production” value [1] is reported as “did not cause read-through in either keratinocyte line”.

With CN[C@@H]1[C@@H](O)[C@@H](O[C@@H]2[C@@H](O)[C@H](O[C@H]3O[C@H]([C@@H](C)O)[C@@H](O)[C@H](O)[C@H]3N)[C@@H](N)C[C@H]2N)OC[C@]1(C)O [G418] the “read-through / full-length C7 production” value [1] was “induced full-length C7 production in both EB5K and DG16 keratinocytes”, the “sustained C7 production” value [1] was “induced sustained C7 production” and the “dose dependence of full-length C7 production” value [1] was “induced full-length C7 production in a dose-dependent manner in both EB5K and DG16 lines”. The “C7 staining (immunofluorescence)” value [2] was “demonstrated C7 staining”, the “keratinocyte hypermotility (migration index)” value [3] was “reversed their hypermotility phenotype to normal” and the “levels of truncated and full-length C7 production compared to untreated cells” value ([4]; G418 8 μg/mL for 48 h, FIG. 8B) was “significantly higher levels of truncated and full-length C7 production”. The “PTC read-through and full-length C7 production” value [4] was “induced PTC read-through and full-length C7 production”.

With O=C(O)c1cccc(-c2noc(-c3ccccc3F)n2)c1 [PTC124, PTC 124] the “read-through / full-length C7 production” value [1] was “did not cause read-through in either keratinocyte line”.

NC[C@@H]1O[C@H](O[C@H]2[C@@H](O)[C@H](O[C@@H]3[C@@H](O)[C@H](N)C[C@H](N)[C@H]3O[C@H]3O[C@H](CO)[C@@H](O)[C@H](O)[C@H]3N)O[C@@H]2CO)[C@H](N)[C@@H](O)[C@@H]1O [Paromomycin, paromomycin] was tested, and the “read-through / full-length C7 production” value [1] was “induced read-through in DG16 cells only”.

In the case of gentamicin, the “read-through / full-length C7 production” value [1] is reported as “induced full-length C7 production in both EB5K and DG16 keratinocytes”, the “sustained C7 production” value [1] is reported as “induced sustained C7 production” and the “dose dependence of full-length C7 production” value [1] is reported as “induced full-length C7 production in a dose-dependent manner in both EB5K and DG16 lines”. For the same compound, the “C7 staining (immunofluorescence)” value [2] was “demonstrated C7 staining”, the “keratinocyte hypermotility (migration index)” value [3] was “reversed their hypermotility phenotype to normal” and the “PTC read-through and full-length C7 production” value [4] was “induced PTC read-through and full-length C7 production”.
